Measurements: patent US9556159B2, “Renin inhibitor” (MITSUBISHI TANABE PHARMA CORPORATION, priority 2012, dated 2017)
Where two headings read alike, the source gives them in different places.

Biological target: T1, Recombinant human renin (Homo sapiens, UniProt P00797)
T1 sequence (P00797 67-406): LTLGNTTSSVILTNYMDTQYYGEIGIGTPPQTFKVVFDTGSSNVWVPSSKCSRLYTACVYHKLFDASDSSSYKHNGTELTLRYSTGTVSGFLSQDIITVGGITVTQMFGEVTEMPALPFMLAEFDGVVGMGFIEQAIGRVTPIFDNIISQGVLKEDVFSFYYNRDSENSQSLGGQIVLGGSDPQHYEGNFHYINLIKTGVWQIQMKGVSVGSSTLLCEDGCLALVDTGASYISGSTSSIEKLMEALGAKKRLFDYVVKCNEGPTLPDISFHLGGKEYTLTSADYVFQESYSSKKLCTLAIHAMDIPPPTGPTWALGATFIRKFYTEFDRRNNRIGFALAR
Assay: Inhibitory activity against human renin (fluorogenic peptide substrate)
Format: biochemical
Conditions: 37° C. for 1 hour

[1] = 50% inhibitory concentration (IC50) against human renin

SMILES	IC50 (read-out: IC50) [nM]	IC50 [1] [nM]
COC(=O)NCCCn1cc([C@H](C)N(C(=O)[C@H]2CNCCO2)C2CC2)c2ccc(C)nc21 [Example 50]	1	
COC(=O)NCCCc1cc([C@@H](C)N(C(=O)[C@H]2CNCCO2)C2CC2)cc(C(F)(F)F)n1 [Example 325]		0.7
CCc1ccc2c([C@@H](C)N(C(=O)[C@H]3CNCCO3)C3CC3)nn(CCCNC(=O)OC)c2n1 [Example 89]	1	
COC(=O)NCCCc1cc([C@@H](C)N(C(=O)[C@H]2CNCCO2)C2CC2)cnc1C1CCCC1 [Example 137]		0.4
COC(=O)NCCCn1nc([C@@H](C)N(C(=O)[C@H]2CNCCO2)C2CC2)cc1-c1cccnc1 [Example 186]		0.4
COC(=O)NCCCc1csc([C@@H](C)N(C(=O)[C@H]2CNCCO2)C2CC2)c1 [Example 224]		3.1
COCCCn1ncc2c(C)cc([C@@H](C)N(C(=O)[C@H]3CNC[C@@H](COC)O3)C3CC3)nc21 [Example 385]		4.3
CCc1nc([C@@H](C)N(C(=O)[C@H]2CNCCO2)C2CC2)cc2c1ncn2CCCOC [Example 388]		1.8
COC[C@@H]1CNC[C@H](C(=O)N(C2CC2)[C@H](C)c2cc(CCCNC(=O)OC)n(C3CCOCC3)n2)O1 [Example 303]		0.8
CCc1cn(CCCOC)c2cc([C@@H](C)N(C(=O)[C@H]3CNCCO3)C3CC3)nc(Cl)c12 [Example 130]		1.5
COC[C@@H]1CNC[C@H](C(=O)N(C2CC2)[C@H](C)c2cc(CCCNC(=O)OC)n(-c3ccccc3)n2)O1 [Example 285]		0.6
COC(=O)NCCCc1cc([C@@H](C)N(C(=O)[C@H]2CNCCO2)C2CC2)nc2ccc(C)cc12 [Example 144]		0.7
COC(=O)NCCCc1cccc([C@@H](C)N(C(=O)[C@H]2CNCCO2)C2CC2)c1 [Example 61]	4	
COC(=O)NCCCn1cc([C@@H](C)N(C(=O)[C@H]2CNCCO2)C2CC2)c2nccnc21 [Example 84]	1.7	
Cc1nc([C@@H](C)N(C(=O)[C@H]2CNCCO2)C2CC2)cc2c1ccn2Cc1ccccc1 [Example 148]		5.1
CCc1cnc2c([C@@H](C)N(C(=O)[C@H]3CNCCO3)C3CC3)cn(CCCCOC)c2c1 [Example 35]	0.4	
COCC(C)Oc1ncc(C(C)N(C(=O)C2CNCCO2)C2CC2)nc1CCCNC(=O)OC (stereo not shown) [Example 436]		2.2
COC(=O)NCCCc1nc([C@@H](C)N(C(=O)[C@H]2CNCCO2)C2CC2)nn1-c1cccc(Cl)c1 [Example 365]		3.5
CCOc1ncc(C(C)N(C(=O)[C@H]2CNC[C@@H](C)O2)C2CC2)nc1CCCNC(=O)OC (stereo partly shown) [Example 395]		3.5
COC(=O)NCCCc1cc(C(C)N(C(=O)[C@H]2CNCCO2)C2CC2)sc1-c1cnc2[nH]ccc2c1 (stereo partly shown) [Example 410]		6.7
COC(=O)NCCCn1nc([C@@H](C)N(C(=O)[C@H]2CNCCO2)C2CC2)cc1-c1ccc(C)cn1 [Example 184]		0.5

SMILES	IC50 (read-out: IC50) [nM]	IC50 [1] [nM]
COC(=O)NCCCc1cc(OC)cc([C@@H](C)N(C(=O)[C@H]2CNCCO2)C2CC2)n1 [Example 87]	4.8	
COCCCc1cc([C@@H](C)N(C(=O)[C@H]2CNC[C@@H](C)O2)C2CC2)cc(CCCNC(=O)OC)n1 [Example 373]		0.8
COC(=O)NCCCc1cc([C@@H](C)N(C(=O)[C@H]2CNCCO2)C2CC2)sc1-c1ccccc1F [Example 229]		0.5
COC(=O)NCCCc1nc(C(C)N(C(=O)[C@H]2CNCCO2)C2CC2)c(C)n1-c1ccccc1 (stereo partly shown) [Example 343]		5.3
COCCCCn1cc([C@@H](C)N(C(=O)[C@H]2CNCCO2)C2CC2)c2nccc(OC)c21 [Example 52]	1.8	
COC(=O)NCCCn1cc([C@H](C)N(C(=O)[C@H]2CNC[C@@H](C)O2)C2CC2)nc1C1CCCCC1 [Example 333]		0.3
COCCCN1CC(C)(C)c2ccc([C@@H](C)N(C(=O)[C@H]3CNCCO3)C3CC3)cc21 [Example 46]	1.5	
C[C@H](c1cn(Cc2cccc(F)c2)c(-c2ccccc2)n1)N(C(=O)[C@H]1CNCCO1)C1CC1 [Example 214]		2.8
COC(=O)NCCCc1sc(C(C)N(C(=O)[C@H]2CNCCO2)C2CC2)cc1-c1ccccc1F (stereo partly shown) [Example 406]		3.4
COC(=O)NCCCn1cc([C@@H](C)N(C(=O)[C@H]2CNC[C@@H](C)O2)C2CC2)nc1-c1ccc(F)cc1 [Example 282]		0.6
COC(=O)NCCCc1cc([C@@H](C)N(C(=O)[C@H]2CNCCO2)C2CC2)sc1-c1ccccc1-c1n[nH]c(=O)o1 [Example 276]		0.5
COC[C@H]1CO[C@@H](C(=O)N(C2CC2)[C@@H](C)c2cc(OC(C)C)n(CCCNC(=O)OC)n2)CN1 [Example 331]		2.3
COC(=O)NCCCc1cc([C@@H](C)N(C(=O)[C@H]2CNCCO2)C2CC2)sc1-c1ccccn1 [Example 227]		0.2
COC[C@@H]1CNC[C@H](C(=O)N(C2CC2)[C@H](C)c2cn(CCCNC(=O)OC)c(C(F)(F)F)n2)O1 [Example 320]		3.2
COC(=O)NCCCc1sc([C@H](C)N(C(=O)[C@H]2CNCCO2)C2CC2)cc1-c1cnc(N)nc1 [Example 431]		3.8
COC(=O)NCCCn1cc([C@@H](C)N(C(=O)[C@H]2CNC[C@@H](C)O2)C2CC2)nc1-c1ccccc1 [Example 230]		0.5
COC(=O)NCCCn1cc([C@H](C)N(C(=O)[C@H]2CN[C@@H](CC(F)F)CO2)C2CC2)nc1C1CCOCC1 [Example 318]		1.3
COC(=O)NCCCn1nc([C@@H](C)N(C(=O)[C@H]2CN[C@@H](COCc3ccccc3)CO2)C2CC2)c2ccc(C)nc21 [Example 257]		1.3
COC(=O)NCCCn1nc([C@@H](C)N(C(=O)[C@H]2CNCCO2)C2CC2)c2cccc(C)c21 [Example 62]	0.6	
COC(=O)NCCCn1cc([C@@H](C)N(C(=O)[C@H]2CNCCO2)C2CC2)nc1C(C)C [Example 181]		0.7
COC[C@@H]1CNC[C@H](C(=O)N(C2CC2)[C@H](C)c2cc(CCCNC(=O)OC)n(C(C)C)n2)O1 [Example 301]		0.6

SMILES	IC50 (read-out: IC50) [nM]	IC50 [1] [nM]
COC(=O)NCCCc1cc([C@@H](C)N(C(=O)[C@H]2CNCCO2)C2CC2)sc1-c1cnc(N)nc1 [Example 412]		0.6
COC(=O)NCCCc1sc([C@@H](C)N(C(=O)[C@H]2CNCCO2)C2CC2)cc1-c1ccccc1C(=O)OC [Example 434]		2
CCc1cc([C@@H](C)N(C(=O)[C@H]2CNCCO2)C2CC2)nc2c1cnn2CCCOC [Example 379]		8.9
COC(=O)NCCCn1cc([C@@H](C)N(C(=O)[C@H]2CNC[C@@H](C(F)(F)F)O2)C2CC2)nc1-c1ccccc1 [Example 203]		0.5
COCCCCn1cc([C@H](C)N(C(=O)[C@H]2CNCCO2)C2CC2)c2nccc(OC)c21 [Example 51]	8.8	
COC(=O)NCCCc1cc(C(C)N(C(=O)[C@H]2CNCCO2)C2CC2)sc1C1CC1 (stereo partly shown) [Example 396]		4.8
COC(=O)NCCCc1cc([C@@H](C)N(C(=O)[C@H]2CNCCO2)C2CC2)sc1-c1cc(C(=O)OC)cc(C(F)(F)F)c1 [Example 260]		2.6
CCc1nc([C@@H](C)N(C(=O)[C@H]2CNC[C@@H](COC)O2)C2CC2)cc2c1ccn2CCCOC [Example 196]		0.7
COC(=O)NCCCn1nc([C@@H](C)N(C(=O)[C@H]2CNC[C@@H](CO)O2)C2CC2)c2ccc(C)nc21 [Example 255]		0.4
COC(=O)NCCCc1cc([C@@H](C)N(C(=O)[C@H]2CNCCO2)C2CC2)nc2ccc(F)cc12 [Example 142]		0.5
COC(=O)NCCCc1sc([C@@H](C)N(C(=O)[C@H]2CN[C@@H](C)CO2)C2CC2)nc1-c1cccc(Cl)c1 [Example 368]		8.4
COC(=O)NCCCc1nc([C@@H](C)N(C(=O)[C@H]2CNCCO2)C2CC2)sc1-c1cnn(C)c1 [Example 413]		2
COC[C@@H]1CNC[C@H](C(=O)N(C2CC2)[C@H](C)c2cc(CCCNC(=O)OC)nc(C(F)(F)F)c2)O1 [Example 324]		0.6
COC(=O)NCCCc1cc([C@@H](C)N(C(=O)[C@H]2CN[C@@H](C)CO2)C2CC2)cc(OC)n1 [Example 266]		2.7
COC(=O)NCCCn1cc(C(C)N(C(=O)[C@H]2CNCCO2)C2CC2)c2ccnc(C)c21 (stereo partly shown) [Example 138]		6.1
COC(=O)NCCCc1nc([C@@H](C)N(C(=O)[C@H]2CNCCO2)C2CC2)ccc1OC [Example 74]	4.6	
COC(=O)NCCCn1nc([C@@H](C)N(C(=O)[C@H]2CN[C@H](CC(F)F)CO2)C2CC2)c2ccc(C)nc21 [Example 307]		6.6
COC[C@H]1CO[C@@H](C(=O)N(C2CC2)[C@@H](C)c2cn(CCCNC(=O)OC)c(C3CCOCC3)n2)CN1 [Example 322]		1.5
COC(=O)NCCCc1cc([C@@H](C)N(C(=O)[C@H]2CNC[C@@H](C)O2)C2CC2)cc(C2CC2)n1 [Example 342]		0.4
